Measurements taken from patent US6638973B2, “Taxane formulations” (FSU Research Foundation, Inc., priority 2000, dated 2003).

System: HCT116 cells
Assay: In vitro cytotoxicity measured by the cell colony formation assay
Assay type: cell-based
Settings: HCT116 cells, 72 h drug incubation, colonies counted after 7 days; ID50 = drug concentration producing 50% inhibition of colony formation; read-out: IN VITRO ID 50 (nm) HCT116
Method in brief: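 Colony-forming survival was scored 7 days after a 72 h, 37 °C compound exposure followed by washout into fresh medium.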

Row | SMILES | IC50
1 | CCCNC(=O)O[C@H]1C[C@H]2OC[C@@]2(OC(C)=O)C2[C@H](OC(=O)c3ccccc3)[C@]3(O)C[C@H](OC(=O)[C@H](O)[C@@H](NC(=O)OC(C)(C)C)c4ccco4)C(C)=C([C@@H](O)C(=O)[C@@]21C)C3(C)C (stereo partly drawn) [Compound 5665] | > 50 nM
2 | C/C=C/C(=O)N[C@@H](c1ccco1)[C@@H](O)C(=O)O[C@H]1C[C@@]2(O)[C@@H](OC(=O)c3ccccc3)C3[C@](C)(C(=O)[C@H](O)C(=C1C)C2(C)C)[C@@H](OC(=O)Nc1ccccc1)C[C@H]1OC[C@@]31OC(C)=O (stereo partly drawn) [Compound 5757] | < 10 nM

Same assay, conditions: HCT116 cells, 72 h incubation with drug, colonies counted after 7 days; ID50 = drug concentration producing 50% inhibition of colony formation; read-out: IN VITRO ID 50 (nm) HCT116

Row | SMILES | IC50
3 | CCOC(=O)O[C@H]1C(=O)[C@@]2(C)C([C@H](OC(=O)c3ccccc3)[C@]3(O)C[C@H](OC(=O)[C@H](O)[C@@H](NC(=O)OCC(C)C)c4ccoc4)C(C)=C1C3(C)C)[C@]1(OC(C)=O)CO[C@@H]1C[C@@H]2O (stereo partly drawn) [Compound 4636] | < 10 nM
4 | C/C=C/C(=O)N[C@@H](c1cccs1)[C@@H](O)C(=O)O[C@H]1C[C@@]2(O)[C@@H](OC(=O)c3ccccc3)C3[C@](C)(C(=O)[C@H](O)C(=C1C)C2(C)C)[C@@H](OC(=O)OC)C[C@H]1OC[C@@]31OC(C)=O (stereo partly drawn) [Compound 4766] | < 1 nM
5 | CCOC(=O)O[C@H]1C[C@H]2OC[C@@]2(OC(C)=O)C2[C@H](OC(=O)c3ccccc3)[C@]3(O)C[C@H](OC(=O)[C@H](O)[C@@H](NC(=O)OC(C)(C)C)c4ccoc4)C(C)=C([C@@H](O)C(=O)[C@@]21C)C3(C)C (stereo partly drawn) [Compound 4464] | < 1 nM
6 | C/C=C/C(=O)N[C@@H](c1ccco1)[C@@H](O)C(=O)O[C@H]1C[C@@]2(O)[C@@H](OC(=O)c3ccccc3)C3[C@](C)(C(=O)[C@H](O)C(=C1C)C2(C)C)[C@@H](OC(=O)OC)C[C@H]1OC[C@@]31OC(C)=O (stereo partly drawn) [Compound 4744] | < 1 nM
7 | CCOC(=O)O[C@H]1C(=O)[C@@]2(C)C([C@H](OC(=O)c3ccccc3)[C@]3(O)C[C@H](OC(=O)[C@H](O)[C@@H](NC(=O)OCC(C)C)c4cccs4)C(C)=C1C3(C)C)[C@]1(OC(C)=O)CO[C@@H]1C[C@@H]2O (stereo partly drawn) [Compound 3003] | < 10 nM
8 | CCOC(=O)O[C@H]1C(=O)[C@@]2(C)C([C@H](OC(=O)c3ccccc3)[C@]3(O)C[C@H](OC(=O)[C@H](O)[C@@H](NC(=O)c4cccs4)c4cccs4)C(C)=C1C3(C)C)[C@]1(OC(C)=O)CO[C@@H]1C[C@@H]2O (stereo partly drawn) [Compound 3020] | < 1 nM

Same assay, conditions: HCT116 cells, colony formation, 72 h incubation with drug, colonies counted after 7 days; ID50 = drug concentration producing 50% inhibition of colony formation; read-out: IN VITRO ID 50 (nm) HCT116

Row | SMILES | IC50
9 | C/C=C/C(=O)N[C@@H](c1ccco1)[C@@H](O)C(=O)O[C@H]1C[C@@]2(O)[C@@H](OC(=O)c3ccccc3)C3[C@](C)(C(=O)[C@H](OC(=O)Nc4ccc(F)c(F)c4)C(=C1C)C2(C)C)[C@@H](O)C[C@H]1OC[C@@]31OC(C)=O (stereo partly drawn) [Compound 6015] | < 10 nM

Same assay, conditions: HCT116 colony formation; 72 h drug incubation, colonies counted after 7 days; Example 5, C-7 ester/C-10 hydroxy taxanes; read-out: IN VITRO ID 50 (nm) HCT116

Row | SMILES | IC50
10 | CCC(=O)O[C@H]1C[C@H]2OC[C@@]2(OC(C)=O)C2[C@H](OC(=O)c3ccccc3)[C@]3(O)C[C@H](OC(=O)[C@H](O)[C@@H](NC(=O)OC(C)(C)C)C4CC4)C(C)=C([C@@H](O)C(=O)[C@@]21C)C3(C)C (stereo partly drawn) [Compound 5070] | < 10 nM
11 | C/C=C/C(=O)N[C@@H](c1cccs1)[C@@H](O)C(=O)O[C@H]1C[C@@]2(O)[C@@H](OC(=O)c3ccccc3)C3[C@](C)(C(=O)[C@H](O)C(=C1C)C2(C)C)[C@@H](OC(=O)CC)C[C@H]1OC[C@@]31OC(C)=O (stereo partly drawn) [Compound 3560] | < 1 nM
12 | CCCC(=O)O[C@H]1C[C@H]2OC[C@@]2(OC(C)=O)C2[C@H](OC(=O)c3ccccc3)[C@]3(O)C[C@H](OC(=O)[C@H](O)[C@H](C=C(C)C)NC(=O)OC(C)(C)C)C(C)=C([C@@H](O)C(=O)[C@@]21C)C3(C)C (stereo partly drawn) [Compound 4406] | < 1 nM
13 | CCC(=O)O[C@H]1C[C@H]2OC[C@@]2(OC(C)=O)C2[C@H](OC(=O)c3ccccc3)[C@]3(O)C[C@H](OC(=O)[C@H](O)[C@@H](NC(=O)OCC(C)C)c4ccco4)C(C)=C([C@@H](O)C(=O)[C@@]21C)C3(C)C (stereo partly drawn) [Compound 3196] | < 10 nM
14 | CCC(=O)O[C@H]1C[C@H]2OC[C@@]2(OC(C)=O)C2[C@H](OC(=O)c3ccccc3)[C@]3(O)C[C@H](OC(=O)[C@H](O)[C@@H](NC(=O)OC(C)(C)C)C(C)C)C(C)=C([C@@H](O)C(=O)[C@@]21C)C3(C)C (stereo partly drawn) [Compound 1434] | < 10 nM

Same assay, conditions: HCT116 colony formation; 72 h drug incubation, colonies counted after 7 days; Example 10, C-10 ester/C-7 hydroxy taxanes; read-out: IN VITRO ID 50 (nm) HCT116

Row | SMILES | IC50
15 | CCC(=O)O[C@H]1C(=O)[C@@]2(C)C([C@H](OC(=O)c3ccccc3)[C@]3(O)C[C@H](OC(=O)[C@H](O)[C@@H](NC(=O)c4ccccc4)c4ccco4)C(C)=C1C3(C)C)[C@]1(OC(C)=O)CO[C@@H]1C[C@@H]2O (stereo partly drawn) [Compound 0663] | < 1 nM
16 | CC(=O)O[C@@]12CO[C@@H]1C[C@H](O)[C@@]1(C)C(=O)[C@H](OC(=O)C3CC3)C3=C(C)[C@@H](OC(=O)[C@H](O)[C@@H](NC(=O)c4ccccc4)c4ccc([N+](=O)[O-])cc4)C[C@@](O)([C@@H](OC(=O)c4ccccc4)C12)C3(C)C (stereo partly drawn) [Compound 2869] | < 10 nM
17 | CCCC(=O)O[C@H]1C(=O)[C@@]2(C)C([C@H](OC(=O)c3ccccc3)[C@]3(O)C[C@H](OC(=O)[C@H](O)[C@@H](NC(=O)OCC)c4ccco4)C(C)=C1C3(C)C)[C@]1(OC(C)=O)CO[C@@H]1C[C@@H]2O (stereo partly drawn) [Compound 3693] | < 1 nM
18 | CCCC(=O)O[C@H]1C(=O)[C@@]2(C)C([C@H](OC(=O)c3ccccc3)[C@]3(O)C[C@H](OC(=O)[C@H](O)[C@@H](NC(=O)OCC(C)C)C4CC4)C(C)=C1C3(C)C)[C@]1(OC(C)=O)CO[C@@H]1C[C@@H]2O (stereo partly drawn) [Compound 4808] | < 10 nM
19 | CCC(=O)O[C@H]1C(=O)[C@@]2(C)C([C@H](OC(=O)c3ccccc3)[C@]3(O)C[C@H](OC(=O)[C@H](O)[C@@H](NC(=O)OC(C)(C)C)c4ccoc4)C(C)=C1C3(C)C)[C@]1(OC(C)=O)CO[C@@H]1C[C@@H]2O (stereo partly drawn) [Compound 0549] | < 10 nM
20 | CCCC(=O)O[C@H]1C(=O)[C@@]2(C)C([C@H](OC(=O)c3ccccc3)[C@]3(O)C[C@H](OC(=O)[C@H](O)[C@@H](NC(=O)c4ccccc4)c4ccco4)C(C)=C1C3(C)C)[C@]1(OC(C)=O)CO[C@@H]1C[C@@H]2O (stereo partly drawn) [Compound 3204] | < 1 nM
21 | CCCC(=O)O[C@H]1C(=O)[C@@]2(C)C([C@H](OC(=O)c3ccccc3)[C@]3(O)C[C@H](OC(=O)[C@H](O)[C@@H](NC(=O)OC(C)(C)C)c4ccccn4)C(C)=C1C3(C)C)[C@]1(OC(C)=O)CO[C@@H]1C[C@@H]2O (stereo partly drawn) [Compound 0951] | < 1 nM
22 | CC(=O)O[C@@]12CO[C@@H]1C[C@H](O)[C@@]1(C)C(=O)[C@H](OC(=O)C3CC3)C3=C(C)[C@@H](OC(=O)[C@H](O)[C@@H](NC(=O)c4ccccc4)c4cccs4)C[C@@](O)([C@@H](OC(=O)c4ccccc4)C12)C3(C)C (stereo partly drawn) [Compound 0919] | < 1 nM
23 | CC(=O)O[C@@]12CO[C@@H]1C[C@H](O)[C@@]1(C)C(=O)[C@H](OC(=O)C(C)C)C3=C(C)[C@@H](OC(=O)[C@H](O)[C@@H](NC(=O)OC(C)(C)C)C4CCC4)C[C@@](O)([C@@H](OC(=O)c4ccccc4)C12)C3(C)C (stereo partly drawn) [Compound 2319] | < 10 nM
24 | CC(=O)O[C@@]12CO[C@@H]1C[C@H](O)[C@@]1(C)C(=O)[C@H](OC(=O)C=C(C)C)C3=C(C)[C@@H](OC(=O)[C@H](O)[C@@H](NC(=O)OC(C)(C)C)c4ccccc4)C[C@@](O)([C@@H](OC(=O)c4ccccc4)C12)C3(C)C (stereo partly drawn) [Compound 2520] | < 10 nM
25 | CC(=O)O[C@@]12CO[C@@H]1C[C@H](O)[C@@]1(C)C(=O)[C@H](OC(=O)C3CC3)C3=C(C)[C@@H](OC(=O)[C@H](O)[C@@H](NC(=O)OC(C)(C)C)c4ccccn4)C[C@@](O)([C@@H](OC(=O)c4ccccc4)C12)C3(C)C (stereo partly drawn) [Compound 2802] | < 1 nM
26 | CCCC(=O)N[C@@H](c1ccco1)[C@@H](O)C(=O)O[C@H]1C[C@@]2(O)[C@@H](OC(=O)c3ccccc3)C3[C@](C)(C(=O)[C@H](OC(=O)CCC)C(=C1C)C2(C)C)[C@@H](O)C[C@H]1OC[C@@]31OC(C)=O (stereo partly drawn) [Compound 3222] | < 1 nM
27 | CC(=O)OC12COC1CC(O)C1(C)C(=O)C(OC(=O)c3cccs3)C3=C(C)C(OC(=O)C(O)C(NC(=O)OC(C)(C)C)C4CCC4)CC(O)(C(OC(=O)c4ccccc4)C21)C3(C)C (stereo not drawn) [Compound 1970] | < 10 nM
28 | CCC(=O)O[C@H]1C(=O)[C@@]2(C)C([C@H](OC(=O)c3ccccc3)[C@]3(O)C[C@H](OC(=O)[C@H](O)[C@@H](NC(=O)OC(C)(C)C)C(C)C)C(C)=C1C3(C)C)[C@]1(OC(C)=O)CO[C@@H]1C[C@@H]2O (stereo partly drawn) [Compound 0583] | < 10 nM
29 | CC(=O)OC12COC1CC(O)C1(C)C(=O)C(OC(=O)c3ccco3)C3=C(C)C(OC(=O)C(O)C(NC(=O)OC(C)(C)C)c4ccccn4)CC(O)(C(OC(=O)c4ccccc4)C21)C3(C)C (stereo not drawn) [Compound 2111] | < 1 nM
30 | CCCC(=O)N[C@@H](c1cccs1)[C@@H](O)C(=O)O[C@H]1C[C@@]2(O)[C@@H](OC(=O)c3ccccc3)C3[C@](C)(C(=O)[C@H](OC(=O)CCC)C(=C1C)C2(C)C)[C@@H](O)C[C@H]1OC[C@@]31OC(C)=O (stereo partly drawn) [Compound 3148] | < 1 nM
31 | CC(=O)O[C@@]12CO[C@@H]1C[C@H](O)[C@@]1(C)C(=O)[C@H](OC(=O)C=C(C)C)C3=C(C)[C@@H](OC(=O)[C@H](O)[C@@H](NC(=O)OC(C)(C)C)c4ccncc4)C[C@@](O)([C@@H](OC(=O)c4ccccc4)C12)C3(C)C (stereo partly drawn) [Compound 2472] | < 1 nM
32 | CC(=O)O[C@@]12CO[C@@H]1C[C@H](O)[C@@]1(C)C(=O)[C@H](OC(=O)C(C)C)C3=C(C)[C@@H](OC(=O)[C@H](O)[C@@H](NC(=O)OC(C)(C)C)c4ccncc4)C[C@@](O)([C@@H](OC(=O)c4ccccc4)C12)C3(C)C (stereo partly drawn) [Compound 2255] | < 1 nM

Same assay, conditions: HCT116 colony formation; 72 h drug incubation, colonies counted after 7 days; Example 15, C-7 substituted acetate/C-10 hydroxy taxanes; read-out: IN VITRO ID 50 (nm) HCT116

Row | SMILES | IC50
33 | CC(=O)O[C@@]12CO[C@@H]1C[C@H](OC(=O)COc1ccccc1)[C@@]1(C)C(=O)[C@H](O)C3=C(C)[C@@H](OC(=O)[C@H](O)[C@@H](NC(=O)OC(C)(C)C)c4ccco4)C[C@@](O)([C@@H](OC(=O)c4ccccc4)C12)C3(C)C (stereo partly drawn) [Compound 5616] | < 1 nM
